{"source": "patent US20120315290A1", "about": "“INHIBITORS OF LL-37 MEDIATED IMMUNE REACTIVITY TO SELF NUCLEIC ACIDS” (BOARD OF REGENTS, THE UNIVERSITY OF TEXAS SYSTEM, priority 2006, published 2012)", "tested_on": "murine pDC", "assay": "Murine pDC stimulation with peptide/DNA complexes (IFN-a ELISA)", "assay_type": "cell-based, mouse", "conditions": "complexed with DNA", "protocol": "Murine pDC were generated from Flt3 ligand supplemented BM cultures and isolated by sorting of CD11c+CD11b-B220+ cells, as previously described. 50,000 murine pDC in […] of complete medium were stimulated with human LL-37 ([…]), mouse CRAMP ([…]), DNA alone, or DNA plus LL-37 or DNA plus CRAMP. After overnight culture supernatants were collected and tested for IFN-a by ELISA.\nMurine pDC respond to LL-37-DNA complexes. To determine whether mouse pDCs can respond to LL-37/DNA complexes, we purified mouse pDCs from Flt3L-supplemented BM cultures according to their CD11c+CD11b-B220+ phenotype, and stimulated them with DNA complexed with LL-37 or CRAMP (the murine LL-37 homologue). […] However, compared to LL-37, approximately 3 times more CRAMP was required to elicit the same amount of type I IFNs (FIG. 27).", "data": [{"substance": "CRAMP", "values": [{"measurement": "Amount required to elicit the same amount of type I IFNs, compared to LL-37", "result": "approximately 3 times"}]}]}
